Source: patent publication US20070105162A1, “Monovalent avidin and streptavidin compositions” (Massachusetts Institute of Technology, priority 2005, published 2007)

Tests used:
[1] = system: biotinylated AP-CFP-TM on HeLa cells; test: Staining of biotinylated AP-CFP-TM on HeLa with Alexa Fluor 568-conjugated avidins; format: cell-based; conditions: avidin, Alexa Fluor 568 conjugate
Method: Enzymatic biotinylation and imaging of HeLa transfectants are performed as previously described (Howarth, M. et al., Proc. Natl. Acad. Sci. USA 102: 7583-7588, 2005), except instead of 10 μM biotin and 1 mM ATP, we add 10 μM biotin-AMP (synthesized according to Coleman and Huang; Coleman, T. M. and Huang, F. Chem. Biol. 9: 1227-1236, 2002) to give equivalent biotinylation but minimizing the risk of purinoreceptor activation by ATP (Rathbone, M. P. et al., Prog. Neurobiol. 59: 663-690, 1999). […] Biotinylation of neurons is performed at day in vitro (DIV) 8 in Hanks' Balanced Salt Solution (HBSS) (Invitrogen) with 0.2 μM biotin ligase and 10 μM biotin-AMP for 5 min at 37° C. […] Neurons are washed with NeuroBasal media (Invitrogen) supplemented with B-27 (Invitrogen), 50 U/mL penicillin, 50 μg/mL streptomycin, and 0.2 mM L-glutamine and chased in the same medium for 0 or 2 hr at 37° C. Cells are then fixed in −20° C. methanol. There was no signal from wild-type avidin labeling if neurons were instead transfected with Ala-neuroligin-1 containing a point mutation in AP, confirming the specificity of labeling. […]
Images of HeLa cells are collected on a Zeiss Axiovert 200M inverted epifluorescence microscope using a 40× oil-immersion lens and a MicroMAX CCD camera (Roper Scientific; Tucson, Ariz.). CFP (420DF20 excitation, 450DRLP dichroic, 475DF40 emission) and Alexa568 (560DF20 excitation, 585DRLP dichroic, 605DF30 emission) images are collected and analyzed using OpenLab software (Improvision; Lexington, Mass.). Fluorescence images are background-corrected. […] Images are scaled to 16 bits and analyzed in Northern Eclipse (Empix Imaging; Ontario, Canada) with user-written software. […] Results are then calculated in terms of clusters per micrometer of dendrite. For assessment of pre-synaptic terminals, clusters are determined as before and average grey levels of clusters are compared between transfected dendrites and untransfected dendrites within the same field of view. […] “n” represents the number of transfected neurons for which clusters were measured. […]

[2] = system: biotinylated AP-neuroligin-1 on hippocampal neurons; test: AP-neuroligin-1 clustering in hippocampal neurons labeled with avidin; format: cell-based, rat; conditions: after a two hour incubation at 37° C.
Method: HeLa cells are grown in Dulbecco's Modified Eagle Medium (DMEM) with 10% Fetal Calf Serum, 50 U/mL penicillin and 50 μg/mL streptomycin. HeLa stably expressing AP-CFP-TM or Ala-CFP-TM have been previously described (Howarth, M. et al., Proc. Natl. Acad. Sci. USA 102: 7583-7588, 2005). Dissociated primary neuronal cultures are prepared from Embryonic Day 18 or 19 (E18/19) rats and transfected with Lipofectamine 2000 at DIV6 as in Levinson et al. (Levinson, J. N. et al. J. Biol. Chem. 280: 17312-17319, 2005). […]
Images of HeLa cells are collected on a Zeiss Axiovert 200M inverted epifluorescence microscope using a 40× oil-immersion lens and a MicroMAX CCD camera (Roper Scientific; Tucson, Ariz.). CFP (420DF20 excitation, 450DRLP dichroic, 475DF40 emission) and Alexa568 (560DF20 excitation, 585DRLP dichroic, 605DF30 emission) images are collected and analyzed using OpenLab software (Improvision; Lexington, Mass.). Fluorescence images are background-corrected. […] Images are scaled to 16 bits and analyzed in Northern Eclipse (Empix Imaging; Ontario, Canada) with user-written software. […] Results are then calculated in terms of clusters per micrometer of dendrite. For assessment of pre-synaptic terminals, clusters are determined as before and average grey levels of clusters are compared between transfected dendrites and untransfected dendrites within the same field of view. […]

biotinylated cells = test: Binding of N23A, S27D streptavidin to biotinylated cells; format: cell-based
[3] = literature value; read-out: Kd for biotin, reported; cited from earlier work

| Substance | Alexa staining of biotinylated AP-CFP-TM [1] | staining pattern of labeled AP-neuroligin-1 [2] | binding to biotinylated cells (biotinylated cells) | Kd [3] |
| --- | --- | --- | --- | --- |
| wild-type avidin: Wild-type avidin tetramer of four wild-type monomers (SEQ ID NO:17) [reference compound] | detected equally well | distinct aggregates | – | – |
| N23A, S27D: Streptavidin double mutant, still a tetramer, one of the weakest reported affinities for biotin | – | – | still bound to biotinylated cells | 71 µM |
